Patent publication US20230416291A1, “HIGH-PURITY ß-NICOTINAMIDE MONONUCLEOTIDE (NMN) AND METHOD FOR PRODUCING SAME” (MIRAILAB BIOSCIENCE INC., priority 2020, published 2023)

Legend:
[1] = Stability test on NMN produced by a conventional method (Comparative Examples); assay type: physicochemical
Text: Results of a stability test on NMN produced by a conventional method (method involving neither the step IV nor the step V according to the present invention) are shown as Comparative Examples in Table 2.

[2] = Stability of high-purity βNMN on preservation, purity by LC-UV area normalization; assay type: physicochemical; details: for Purity, Average value: three samples
Experimental: In the area normalization method based on LC-UV, a NMN sample is dissolved in an appropriate amount of water and subjected to LC-UV measurement at a detection wavelength of 266 nm using an apparatus, for example, LC-30AD (manufactured by Shimadzu Corp.). The ratio (%) of the area of the main component to the total area of chromatogram peaks of the obtained sample can be regarded as the purity (%) of βNMN. In the area normalization method based on LC-UV, the high-purity βNMN obtained in the section (5) was dissolved in an appropriate amount of water and subjected to LC-UV measurement under the following conditions. • Apparatus name: LC-30AD (manufactured by Shimadzu Corp.) • Detection wavelength: 266 nm The ratio (%) of the area of the main component to the total area of chromatogram peaks of the obtained sample was regarded as the purity (%) of βNMN. As a result, the purity of the high-purity βNMN obtained in the section (5) was 99.2%. The high-purity βNMN obtained in the section (5) was preserved at 4° C., 25° C., or 40° C. and examined for its stability. Each sample was provided as three samples per condition. The purity of βNMN in each sample during preservation, 1 month later, 2 months later, and 3 months later was measured by the area normalization method based on LC-UV.

In the case of NC(=O)c1ccc[n+]([C@@H]2O[C@H](COP(=O)([O-])O)[C@@H](O)[C@H]2O)c1 [NMN produced by a conventional method, nicotinamide mononucleotide], the Purity ([1]; 4° C., 1 day later) is reported as 97.92%, the Purity ([1]; 4° C., 2 days later) is reported as 97.78% and the Purity ([1]; 4° C., 3 days later) is reported as 97.60%. The Purity ([1]; 4° C., 7 days later) was 97.57%, the Purity ([1]; 4° C., 15 days later) was 97.54% and the Purity ([1]; 4° C., 30 days later) was 97.26%. It also gave a Purity ([1]; 4° C., At start of preservation) of 97.94%, a Purity ([1]; 25° C., 1 day later) of 97.11% and a Purity ([1]; 25° C., 2 days later) of 96.04%. It also gave a Purity ([1]; 25° C., 3 days later) of 95.98%, a Purity ([1]; 25° C., 7 days later) of 90.55% and a Purity ([1]; 25° C., 15 days later) of 81.74%. For the same molecule, the Purity ([1]; 25° C., 30 days later) was 65.66%, the Purity ([1]; 25° C., At start of preservation) was 97.94% and the Stability in words ([1]; preserved at 4° C. for 30 days) was “able to maintain the purity obtained at the start of preservation for 30 days”.

With NC(=O)c1ccc[n+]([C@@H]2O[C@H](COP(=O)([O-])O)[C@@H](O)[C@H]2O)c1 [high-purity βNMN, β-nicotinamide mononucleotide] the “Purity maintained on preservation” value ([2]; for 3 months at any temperature of 4° C., 25° C., and 40° C.) was at least 99%, the “Purity, Average value” ([2]; preserved at 4° C., 1 month later) was 99.64% and the “Purity, Average value” ([2]; preserved at 4° C., 2 months later) was 99.51%. The “Purity, Average value” ([2]; preserved at 4° C., 3 months later) was 99.66%, the “Purity, Average value” ([2]; preserved at 4° C., During preservation) was 99.69% and the “Purity, Average value” ([2]; preserved at 25° C., 1 month later) was 99.26%. The “Purity, Average value” ([2]; preserved at 25° C., 2 months later) was 99.45%, the “Purity, Average value” ([2]; preserved at 25° C., 3 months later) was 99.57% and the “Purity, Average value” ([2]; preserved at 25° C., During preservation) was 99.69%. The “Purity, Average value” ([2]; preserved at 40° C., 1 month later) was 99.51%, the “Purity, Average value” ([2]; preserved at 40° C., 2 months later) was 99.27% and the “Purity, Average value” ([2]; preserved at 40° C., 3 months later) was 99.35%. For the same molecule, the “Purity, Average value” ([2]; preserved at 40° C., During preservation) was 99.69%.
